# What was measured:
# Format in all cases: in vivo, Alfalfa (Medicago sativa L.)
# [1] = system: glutamate synthase (GOGAT); test: Example 3 activity of glutamate synthase (GOGAT) of alfalfa leaves; settings: 12 days after application; Groups 2-3 without, Groups 4-6 with Rhizobium
# Protocol: Alfalfa (Medicago sativa L.) seeds were sown in 3.5-inch pots containing culture medium (peat soil:vermiculite=1:1). Five (5) seeds were sown in one pot. Alfalfa plants were randomly divided into 6 groups, in which Groups 1 to 3 were not inoculated with Rhizobium, and Groups 4 to 6 were inoculated with Rhizobium. Rhizobium inoculation was the same as described in Example 2. After inoculation, the pots were placed in a phytotron, which was operated at 25/23° C. day/night temperature and on a 16/8 h light/dark cycle. Two (2) weeks after sowing (V2 stage), alfalfa plants were applied with the reagents listed in Table 6 once at a rate of 10 mL/12 pots using a foliar spray treatment. The reagents were applied once in total during the test period. [table] Twelve (12) days after the application of reagents, 4 alfalfa plants from each group (N=4) were randomly selected. The third trifoliate leaves of the selected plants were collected to determine GOGAT activity by the following method. […] The GOGAT activity is determined by NADH reduction through measuring fluorescence intensity at excitation/emission wavelengths of 340/445 nm. […] Average and standard error (SE) of each group were calculated.
# alfalfa plants [2] = test: Example 3 efficacy test on alfalfa with or without Rhizobium inoculation: shoot weight, leaf area, root dry weight; settings: Day 12 after foliar spray
# Protocol: Five (5) seeds were sown in one pot. Alfalfa plants were randomly divided into 6 groups, in which Groups 1 to 3 were not inoculated with Rhizobium, and Groups 4 to 6 were inoculated with Rhizobium. Rhizobium inoculation was the same as described in Example 2. After inoculation, the pots were placed in a phytotron, which was operated at 25/23° C. day/night temperature and on a 16/8 h light/dark cycle. Two (2) weeks after sowing (V2 stage), alfalfa plants were applied with the reagents listed in Table 6 once at a rate of 10 mL/12 pots using a foliar spray treatment. The reagents were applied once in total during the test period. [table] Twelve (12) days after the application of reagents, 12 alfalfa plants from each group (N=12) were randomly selected for phenotype observation, and the shoot fresh weight of the collected samples was measured. Then, the collected samples were dried at 50° C. overnight, and the shoot dry weight was measured. Twelve (12) days after the application of reagents, 6 alfalfa plants from each group (N=6) were randomly selected. All the trifoliate leaves of the selected plants were collected and numbered in sequence from bottom to top. The leaf area of all the trifoliate leaves of each alfalfa plant was measured by a leaf analyzer ([…]2400, Regent Instruments Inc.). Twelve (12) days after the application of reagents, 4 alfalfa plants from each group (N=4) were randomly selected. The collected samples were dried at 50° C. overnight, and then the root dry weight was measured. Average and standard error (SE) of each group were calculated.
# alfalfa plants [3] = test: Example 3 nitrogen content of alfalfa leaves; settings: 12 days after application; Groups 4-6 Rhizobium inoculated; p<0.001
# Protocol: Alfalfa (Medicago sativa L.) seeds were sown in 3.5-inch pots containing culture medium (peat soil:vermiculite=1:1). Five (5) seeds were sown in one pot. Alfalfa plants were randomly divided into 6 groups, in which Groups 1 to 3 were not inoculated with Rhizobium, and Groups 4 to 6 were inoculated with Rhizobium. Rhizobium inoculation was the same as described in Example 2. After inoculation, the pots were placed in a phytotron, which was operated at 25/23° C. day/night temperature and on a 16/8 h light/dark cycle. Two (2) weeks after sowing (V2 stage), alfalfa plants were applied with the reagents listed in Table 6 once at a rate of 10 mL/12 pots using a foliar spray treatment. The reagents were applied once in total during the test period. [table] Twelve (12) days after the application of reagents, 4 alfalfa plants from each group (N=4) were randomly selected. The first to fifth trifoliate leaves of the selected plants were collected, air-dried at 50° C. overnight and then ground into powder. […] Average and standard error (SE) of each group were calculated.
# [4] = Groups 2-3 without, Groups 4-6 with Rhizobium
# [5] = Groups 4-6 Rhizobium inoculated
# [6] = Groups 4-6 Rhizobium inoculated, Group 1 no Rhizobium, no actives
compound,measurement,setting,value
"NCCCC(=O)O [Group 4, γ-aminobutyric acid (GABA)]",increase of GOGAT activity in the leaves compared with Group 1,[1],13.5%
same,"Leaf Area, Sum of trifoliate leaves",alfalfa plants [2]; [4],6.27 cm^2/plant
same,"Leaf Area, trifoliate leaf number 1",alfalfa plants [2]; [4],0.90 cm^2/plant
same,"Leaf Area, trifoliate leaf number 2",alfalfa plants [2]; [4],1.03 cm^2/plant
same,"Leaf Area, trifoliate leaf number 3",alfalfa plants [2]; [4],1.01 cm^2/plant
same,"Leaf Area, trifoliate leaf number 4",alfalfa plants [2]; [4],0.85 cm^2/plant
same,"Leaf Area, trifoliate leaf number 5",alfalfa plants [2]; [4],0.87 cm^2/plant
same,"Leaf Area, trifoliate leaf number 6",alfalfa plants [2]; [4],0.93 cm^2/plant
same,"Leaf Area, trifoliate leaf number 7",alfalfa plants [2]; [4],0.52 cm^2/plant
same,"Leaf Area, trifoliate leaf number 8",alfalfa plants [2]; [4],0.17 cm^2/plant
same,"Leaf Area, trifoliate leaf number 9",alfalfa plants [2]; [4],0.00 cm^2/plant
same,increase of leaf area compared with Group 1,alfalfa plants [2]; [4],64%
same,root dry weights compared with Group 1,alfalfa plants [2]; [4],higher
same,increase of trifoliate leaves compared with Group 1,alfalfa plants [2]; [5],2 trifoliate leaves
same,"plant height compared with Group 1 (words, FIG. 12)",alfalfa plants [2]; [5],higher
same,increase of shoot dry weight compared with Group 1,alfalfa plants [2]; [6],52.9%
same,increase of shoot fresh weight compared with Group 1,alfalfa plants [2]; [6],66.5%
same,increase of nitrogen content in the leaves compared with Group 1,alfalfa plants [3],115.8%

# Reference: patent US12575568B2, “Composition for promoting the growth of legumes” (CH BIOTECH R&D CO., LTD., priority 2022, dated 2026)
